# According to US20090117089A1, “GLYCOLIPIDS AND ANALOGUES THEREOF AS ANTIGENS FOR NK T CELLS” (The Rockefeller University, priority 2005, published 2009):
# Key:
# [1] = tested on: Vα24i human NKT cell line; experiment: In vitro cytokine secretion assay using human NKT cell lines; format: cell-based; settings: CD14+ immature dendritic cells; 10 μg/ml glycolipid (1-10 μg/ml for 3-O-sulfo-α-galactosylceramide); 10 IU/ml IL-2
# Experimental: (§1) Human NKT cell lines, expressing the Vα24i T cell receptor as well as CD161, were generated as follows: Anti-CD161 monoclonal antibodies, and anti-CD14 monoclonal antibodies, each coupled to magnetic beads (Miltenyi biotec, Auburn, Calif.), were used sequentially to isolate CD161^+ cells and CD14^+ cells from leukopaks. Immature dendritic cells were generated from the CD14^+ cells after a two-day incubation in the presence of 300 U/ml GM-CSF (R&D systems, Minneapolis, Minn.) and 100 U/ml IL-4 (R&D systems, Minneapolis, Minn.). Following irradiation with 2000 rads, the immature dendritic cells were co-cultured with syngeneic CD161^+ cells in the presence of 100 ng/ml of alpha-galactosylceramide and 10 IU/ml of IL-2 (Invitrogen, Carlsbad Calif.) for 10 to 14 days. After stimulating the CD161^+ cells a second time with alpha-galactosylceramide-pulsed, irradiated immature dendritic cells, NKT cell lines were shown by flow cytometry to express both CD161^+ and V 24i TCR (99% purity).
# (§2) IFN-γ and IL-4 secretion by the Vα 24i human NKT cell line was determined by ELISA (BD Pharmingen, San Diego, Calif.) after culture for 16 hours. For these assays, 1×10^5 Vα 24i human NKT cells were co-cultured with 4×10^5 irradiated, immature CD14^+ dendritic cells, in the presence of the glycolipid compounds at 10 μg/ml in a 96-well flat-bottom plate.
# as §1, with “of 100-0.1” for “of 100”
# In some cases, Hela cells were transfected with a human CD1d construct [Xing et al. 2005. Bioorg Med Chem 13: 2907], and were used to present the glycolipids, via pulsing with the respective compounds at the indicated concentration, to NKT lines.
# as §2, with “IFN-γ” for “IFN-γ and IL-4”
# CD8+ P1CTL T cells = experiment: Proliferation and differentiation of P1A-specific P1CTL CD8+ T cells; format: in vivo, mouse
# Experimental: CD8^+ P1A-specific, T cells were prepared from meshed cell suspensions of TCR transgenic lymph nodes and spleen by depleting B220, CD4, F4/80 and MHC class II-expressing cells using sheep anti-rat IgG Dynabeads®. For CFSE labeling (Molecular Probes), the cells at 10^7/ml in PBS were incubated with 5 μM CFSE for 10 min at 37° C. The reaction was stopped by washing three times with PBS.
# 2×10^7 irradiated J558-Ld^− cells, were injected i.v. or s.c. into Balb/c mice with or without α-Gal Cer as a DC maturation stimulus. In some experiments we compared α-Gal Cer to agonistic anti-CD40 mAb (1C10, 25 μg i.p.) or the toll like receptor ligands, poly IC ([…], Invivogen) or lipopolysaccharide (20 μgm, Sigma). The mice had been given CFSE-labeled PICTL CD8^+ T cells i.v. 1 d earlier, or were naive animals. In some experiments, mice were sacrificed 3 d later, and T cell division and activation in spleen were analyzed by flow cytometry. Additionally, 7 d or 2 months later, 5×10^6 live J558 tumor cells were inoculated subcutaneously. 5×10^6 Meth A fibrosarcoma was used as a control tumor for challenge. Tumor cell growth was measured with calipers every other day. Mice were scored positive for tumor as soon as tumors became palpable and grew progressively. Mice were euthanized when tumor size exceeded 400 mm^2.
# T-cell division, phagocytosis of CFSE-labeled tumor cells and acquisition of cell surface-activation markers were determined by flow cytometry. Briefly, spleens were harvested and low-density splenocytes were stained with CD11c-APC and CD8α-PE, CD11b-PE, B220-PE or CD4-PE for the up-take examination. For in vivo proliferation of P1CTL T-cells, spleens were harvested and the splenocytes suspension was staining with CD8α-Cy, Vα8α-PE, CD25-PE, CD62L-PE. For intracellular cytokine staining, splenocytes were stimulated in vitro with 1 µg/ml P1A peptide in 5 μg/ml brefeldin A (Sigma-Aldrich) at 37° C. for 4 hrs. The cells were first stained with CD8α-Cy-Chrome™, fixed and permeabilized with cytofix-cytoperm buffer (BD Biosciences), and stained with PE conjugated mAbs to IL-2 or IFN-γ.
compound,measurement,setting,value
"CCCCCCCCCCCCCCCCCCCCCCCCCC(=O)N[C@@H](CO[C@H]1O[C@H](CO)[C@H](O)[C@H](O)[C@H]1O)[C@H](O)[C@H](O)CCCCCCCCCCCCCC [α-GalCer, 2S,3S,4R-1-O(α-galactopyranosyl)-2(N-hexacosanoylamino)-1,3,4-octadecanetriol]",IFN-γ secretion,[1],greater IFN-γ and IL-4 secretion
same,IL-4 secretion,[1],greater IFN-γ and IL-4 secretion
same,stimulation of naïve CD8+ P1CTL T cells in culture by isolated DCs,CD8+ P1CTL T cells; DCs from mice given dying J558 with α-Gal Cer,much more effective at stimulating proliferation of naïve CD8^+ T cells in culture
same,P1CTL proliferation in vivo after DC transfer,"CD8+ P1CTL T cells; DCs isolated 4 hours after immunization, 3 days",P1CTL proliferation was detected only in response to DCs from mice given tumor with α-Gal Cer
same,IFN-γ and IL-2 production on restimulation with P1A peptide,CD8+ P1CTL T cells; T cells stimulated in vivo in presence of α-Gal Cer,significantly more IFN-γ and IL-2
same,P1CTL T cell proliferation in vivo,"CD8+ P1CTL T cells; irradiated J558− plus α-Gal Cer vs J558− alone, 3 days",proliferated more extensively
